Several values for one entry are separate records, joined by “and”; a condition that tells them apart may be missing. Equal entries are not always repeated. Toxic doses and inconclusive results are not listed. Rule as the data show it: active = T/C of 150% or more; inactive = T/C below 125%.
Tested on: L1210 leukemia ip in BDF1 mice, survival T/C
Assay: NCI In Vivo Anticancer Drug Screen. Data for tumor model L1210 Leukemia (intraperitoneal) in B6D2F1 (BDF1) mice
Details: higher = longer survival
How it was run: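 Value reflects the ratio of survival in compound-treated mice to survival in vehicle-treated controls, with both groups carrying the same transplanted tumor.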

Measured: T/C

O=C1CN=C(c2ccc[nH]2)c2cc(Cl)ccc2N1
inactive: endpoint: mean survival time, dose: 1.56 mg/kg/injection, schedule: Q03HX008 (oral), vehicle: saline with Tween-80 98 % of control | endpoint: mean survival time, dose: 1.56 mg/kg/injection, schedule: Q03HX016 (oral), vehicle: saline with Tween-80 103 % of control | endpoint: mean survival time, dose: 1.56 mg/kg/injection, schedule: Q03HX024 (oral), vehicle: saline with Tween-80 98 % of control | endpoint: mean survival time, dose: 3.12 mg/kg/injection, schedule: Q03HX008 (oral), vehicle: saline with Tween-80 97 % of control | endpoint: mean survival time, dose: 3.12 mg/kg/injection, schedule: Q03HX016 (oral), vehicle: saline with Tween-80 102 % of control | endpoint: mean survival time, dose: 3.12 mg/kg/injection, schedule: Q03HX024 (oral), vehicle: saline with Tween-80 100 % of control | endpoint: mean survival time, dose: 6.25 mg/kg/injection, schedule: Q03HX008 (oral), vehicle: saline with Tween-80 98 % of control | endpoint: mean survival time, dose: 6.25 mg/kg/injection, schedule: Q03HX016 (ip), vehicle: other 105 % of control | endpoint: mean survival time, dose: 6.25 mg/kg/injection, schedule: Q03HX016 (oral), vehicle: saline with Tween-80 98 % of control | endpoint: mean survival time, dose: 6.25 mg/kg/injection, schedule: Q03HX024 (ip), vehicle: other 114 % of control | endpoint: mean survival time, dose: 6.25 mg/kg/injection, schedule: Q03HX024 (oral), vehicle: saline with Tween-80 97 % of control | endpoint: mean survival time, dose: 7.13 mg/kg/injection, schedule: Q01DX009 (ip), vehicle: clinical formulation 102 % of control | endpoint: mean survival time, dose: 12.5 mg/kg/injection, schedule: Q03HX008 (oral), vehicle: saline with Tween-80 102 % of control | endpoint: mean survival time, dose: 12.5 mg/kg/injection, schedule: Q03HX016 (ip), vehicle: other 104 % of control | endpoint: mean survival time, dose: 12.5 mg/kg/injection, schedule: Q03HX016 (oral), vehicle: saline with Tween-80 97 % of control | endpoint: mean survival time, dose: 12.5 mg/kg/injection, schedule: Q03HX024 (ip), vehicle: other 114 % of control | endpoint: mean survival time, dose: 12.5 mg/kg/injection, schedule: Q03HX024 (oral), vehicle: saline with Tween-80 101 % of control | endpoint: mean survival time, dose: 14.2 mg/kg/injection, schedule: Q01DX009 (ip), vehicle: clinical formulation 103 % of control | endpoint: mean survival time, dose: 25.0 mg/kg/injection, schedule: Q01DX006 (iv), vehicle: other 100 % of control | endpoint: mean survival time, dose: 25.0 mg/kg/injection, schedule: Q03HX008 (oral), vehicle: saline with Tween-80 100 % of control and 101 % of control | endpoint: mean survival time, dose: 25.0 mg/kg/injection, schedule: Q03HX016 (ip), vehicle: other 112 % of control | endpoint: mean survival time, dose: 25.0 mg/kg/injection, schedule: Q03HX016 (oral), vehicle: saline with Tween-80 95 % of control and 103 % of control | endpoint: mean survival time, dose: 25.0 mg/kg/injection, schedule: Q03HX024 (oral), vehicle: saline with Tween-80 95 % of control and 98 % of control | endpoint: mean survival time, dose: 33.0 mg/kg/injection, schedule: Q01DX015 (ip), vehicle: other 123 % of control | endpoint: mean survival time, dose: 33.0 mg/kg/injection, schedule: Q01DX Z (ip), vehicle: carboxymethylcellulose (CMC) 120 % of control | endpoint: mean survival time, dose: 34.0 mg/kg/injection, schedule: Q01DX009 (ip), vehicle: other 105 % of control | endpoint: mean survival time, dose: 50.0 mg/kg/injection, schedule: Q01DX001 (iv), vehicle: other 101 % of control | endpoint: mean survival time, dose: 50.0 mg/kg/injection, schedule: Q01DX006 (iv), vehicle: other 102 % of control | endpoint: mean survival time, dose: 50.0 mg/kg/injection, schedule: Q01DX009 (ip), vehicle: Klucel (hydroxypropylcellulose) (HPC) 103 % of control | endpoint: mean survival time, dose: 50.0 mg/kg/injection, schedule: Q01DX009 (ip), vehicle: water 118 % of control | endpoint: mean survival time, dose: 50.0 mg/kg/injection, schedule: Q01DX015 (ip), vehicle: other 121 % of control | endpoint: mean survival time, dose: 50.0 mg/kg/injection, schedule: Q03HX008 (oral), vehicle: saline with Tween-80 108 % of control | endpoint: mean survival time, dose: 50.0 mg/kg/injection, schedule: Q03HX016 (ip), vehicle: other 122 % of control | endpoint: mean survival time, dose: 50.0 mg/kg/injection, schedule: Q03HX016 (oral), vehicle: saline with Tween-80 112 % of control | endpoint: mean survival time, dose: 50.0 mg/kg/injection, schedule: Q03HX024 (oral), vehicle: saline with Tween-80 110 % of control | endpoint: mean survival time, dose: 50.0 mg/kg/injection, schedule: Q04DX003 (ip), vehicle: other 108 % of control | endpoint: mean survival time, dose: 50.0 mg/kg/injection, schedule: Q08DX002 (ip), vehicle: other 96 % of control | endpoint: mean survival time, dose: 52.0 mg/kg/injection, schedule: Q01DX009 (ip), vehicle: other 98 % of control | endpoint: mean survival time, dose: 80.0 mg/kg/injection, schedule: Q01DX009 (ip), vehicle: other 108 % of control | endpoint: mean survival time, dose: 100.0 mg/kg/injection, schedule: Q01DX001 (ip), vehicle: other 98 % of control | endpoint: mean survival time, dose: 100.0 mg/kg/injection, schedule: Q01DX001 (iv), vehicle: other 101 % of control | endpoint: mean survival time, dose: 100.0 mg/kg/injection, schedule: Q01DX001 (oral), vehicle: saline with Tween-80 102 % of control | endpoint: mean survival time, dose: 100.0 mg/kg/injection, schedule: Q01DX006 (iv), vehicle: other 110 % of control | endpoint: mean survival time, dose: 100.0 mg/kg/injection, schedule: Q01DX009 (ip), vehicle: Klucel (hydroxypropylcellulose) (HPC) 105 % of control | endpoint: mean survival time, dose: 100.0 mg/kg/injection, schedule: Q01DX009 (oral), vehicle: saline with Tween-80 114 % of control | endpoint: mean survival time, dose: 100.0 mg/kg/injection, schedule: Q03HX008 (oral), vehicle: saline with Tween-80 123 % of control | endpoint: mean survival time, dose: 100.0 mg/kg/injection, schedule: Q03HX024 (oral), vehicle: saline with Tween-80 121 % of control | endpoint: mean survival time, dose: 100.0 mg/kg/injection, schedule: Q04DX003 (ip), vehicle: other 105 % of control | endpoint: mean survival time, dose: 100.0 mg/kg/injection, schedule: Q04DX003 (oral), vehicle: saline with Tween-80 109 % of control | endpoint: mean survival time, dose: 100.0 mg/kg/injection, schedule: Q08DX002 (ip), vehicle: other 115 % of control | endpoint: mean survival time, dose: 100.0 mg/kg/injection, schedule: Q08DX002 (oral), vehicle: saline with Tween-80 103 % of control | endpoint: mean survival time, dose: 102.0 mg/kg/injection, schedule: Q01DX007 (oral), vehicle: other 108 % of control | endpoint: mean survival time, dose: 120.0 mg/kg/injection, schedule: Q01DX009 (ip), vehicle: other 116 % of control | endpoint: mean survival time, dose: 156.0 mg/kg/injection, schedule: Q01DX007 (oral), vehicle: other 112 % of control | endpoint: mean survival time, dose: 200.0 mg/kg/injection, schedule: Q01DX001 (ip), vehicle: other 106 % of control | endpoint: mean survival time, dose: 200.0 mg/kg/injection, schedule: Q01DX001 (iv), vehicle: other 108 % of control | endpoint: mean survival time, dose: 200.0 mg/kg/injection, schedule: Q01DX001 (oral), vehicle: saline with Tween-80 116 % of control | endpoint: mean survival time, dose: 200.0 mg/kg/injection, schedule: Q01DX009 (oral), vehicle: saline with Tween-80 109 % of control | endpoint: mean survival time, dose: 200.0 mg/kg/injection, schedule: Q04DX003 (ip), vehicle: other 114 % of control | endpoint: mean survival time, dose: 200.0 mg/kg/injection, schedule: Q04DX003 (oral), vehicle: saline with Tween-80 115 % of control | endpoint: mean survival time, dose: 200.0 mg/kg/injection, schedule: Q08DX002 (ip), vehicle: other 118 % of control | endpoint: mean survival time, dose: 200.0 mg/kg/injection, schedule: Q08DX002 (oral), vehicle: saline with Tween-80 105 % of control | endpoint: mean survival time, dose: 225.0 mg/kg/injection, schedule: Q01DX Z (ip), vehicle: carboxymethylcellulose (CMC) 86 % of control | endpoint: mean survival time, dose: 240.0 mg/kg/injection, schedule: Q01DX007 (oral), vehicle: other 119 % of control | endpoint: mean survival time, dose: 400.0 mg/kg/injection, schedule: Q01DX001 (ip), vehicle: other 112 % of control | endpoint: mean survival time, dose: 400.0 mg/kg/injection, schedule: Q01DX001 (iv), vehicle: other 109 % of control | endpoint: mean survival time, dose: 400.0 mg/kg/injection, schedule: Q01DX001 (oral), vehicle: saline with Tween-80 108 % of control | endpoint: mean survival time, dose: 400.0 mg/kg/injection, schedule: Q01DX009 (ip), vehicle: Klucel (hydroxypropylcellulose) (HPC) 109 % of control | endpoint: mean survival time, dose: 400.0 mg/kg/injection, schedule: Q01DX009 (ip), vehicle: water 108 % of control | endpoint: mean survival time, dose: 400.0 mg/kg/injection, schedule: Q01DX009 (oral), vehicle: saline with Tween-80 105 % of control | endpoint: mean survival time, dose: 400.0 mg/kg/injection, schedule: Q04DX003 (ip), vehicle: other 114 % of control | endpoint: mean survival time, dose: 400.0 mg/kg/injection, schedule: Q08DX002 (ip), vehicle: other 109 % of control | endpoint: mean survival time, dose: 400.0 mg/kg/injection, schedule: Q08DX002 (oral), vehicle: saline with Tween-80 109 % of control | endpoint: mean survival time, dose: 540.0 mg/kg/injection, schedule: Q01DX001 (oral), vehicle: other 110 % of control | endpoint: mean survival time, dose: 720.0 mg/kg/injection, schedule: Q01DX001 (oral), vehicle: other 110 % of control | endpoint: mean survival time, dose: 800.0 mg/kg/injection, schedule: Q08DX002 (oral), vehicle: saline with Tween-80 121 % of control | endpoint: median survival time, dose: 2.0 mg/kg/injection, schedule: Q03HX008 (ip), vehicle: clinical formulation 95 % of control | endpoint: median survival time, dose: 32.0 mg/kg/injection, schedule: Q04DX003 (ip), vehicle: clinical formulation 90 % of control | endpoint: median survival time, dose: 50.0 mg/kg/injection, schedule: Q01DX009 (ip), vehicle: steriod suspending solution 100 % of control | endpoint: median survival time, dose: 50.0 mg/kg/injection, schedule: Q01DX009 (sc), vehicle: steriod suspending solution 100 % of control | endpoint: median survival time, dose: 64.0 mg/kg/injection, schedule: Q01DX001 (ip), vehicle: clinical formulation 95 % of control | endpoint: median survival time, dose: 64.0 mg/kg/injection, schedule: Q04DX003 (ip), vehicle: clinical formulation 100 % of control | endpoint: median survival time, dose: 100.0 mg/kg/injection, schedule: Q01DX001 (ip), vehicle: acid diluted with saline 100 % of control | endpoint: median survival time, dose: 100.0 mg/kg/injection, schedule: Q01DX009 (ip), vehicle: steriod suspending solution 100 % of control | endpoint: median survival time, dose: 100.0 mg/kg/injection, schedule: Q01DX009 (sc), vehicle: steriod suspending solution 100 % of control | endpoint: median survival time, dose: 200.0 mg/kg/injection, schedule: Q01DX001 (ip), vehicle: acid diluted with saline 95 % of control | endpoint: median survival time, dose: 200.0 mg/kg/injection, schedule: Q01DX009 (ip), vehicle: steriod suspending solution 122 % of control | endpoint: median survival time, dose: 200.0 mg/kg/injection, schedule: Q01DX009 (sc), vehicle: steriod suspending solution 100 % of control | endpoint: median survival time, dose: 400.0 mg/kg/injection, schedule: Q01DX009 (sc), vehicle: steriod suspending solution 122 % of control | endpoint: median survival time, dose: 800.0 mg/kg/injection, schedule: Q01DX009 (ip), vehicle: steriod suspending solution 88 % of control
active: endpoint: mean survival time, dose: 50.0 mg/kg/injection, schedule: Q01DX Z (ip), vehicle: carboxymethylcellulose (CMC) 155 % of control | endpoint: mean survival time, dose: 50.0 mg/kg/injection, schedule: Q03HX024 (ip), vehicle: other 150 % of control | endpoint: mean survival time, dose: 75.0 mg/kg/injection, schedule: Q01DX Z (ip), vehicle: carboxymethylcellulose (CMC) 174 % of control | endpoint: mean survival time, dose: 112.0 mg/kg/injection, schedule: Q01DX015 (ip), vehicle: other 158 % of control | endpoint: mean survival time, dose: 112.5 mg/kg/injection, schedule: Q01DX Z (ip), vehicle: carboxymethylcellulose (CMC) 170 % of control | endpoint: mean survival time, dose: 180.0 mg/kg/injection, schedule: Q01DX009 (ip), vehicle: other 155 % of control | endpoint: median survival time, dose: 400.0 mg/kg/injection, schedule: Q01DX009 (ip), vehicle: steriod suspending solution 150 % of control

Reference: PubChem BioAssay AID248 (DTP/NCI, 2004)
